Reference: ChEMBL document CHEMBL1201862, “PubChem BioAssay data set” (2004)
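96-well plates; 48 h exposure; 5 concentrations. Endpoints by linear interpolation between flanking doses. Not reached: highest tested concentration assigned. GI50 marks 50% less growth.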 The source made the active and inactive calls. Rule as the data show it: active = GI50 up to about 1.1 µM and inactive = higher.

Tests used:
Assay in all cases: NCI anticancer screen, dose series, 48 h
A498 = system: A498
BT-549 = system: BT-549
CCRF-CEM = system: CCRF-CEM
EKVX = system: EKVX
HOP-62 = system: HOP-62
IGROV-1 = system: IGROV-1
K562 = system: K562
LOX IMVI = system: LOX IMVI
MCF7 = system: MCF7
MDA-MB-231 = system: MDA-MB-231
MDA-N = system: MDA-N
Malme-3M = system: Malme-3M
OVCAR-4 = system: OVCAR-4
OVCAR-8 = system: OVCAR-8
PC-3 = system: PC-3
SK-MEL-5 = system: SK-MEL-5
SK-OV-3 = system: SK-OV-3
SNB-75 = system: SNB-75
SW-620 = system: SW-620
TK-10 = system: TK-10

C=C(C)C(=O)O[C@@H]1C/C(C)=C\[C@H](OC(C)=O)C[C@](C)(O)/C=C2/OC(=O)C(COC(C)=O)=C21
GI50 (A498): 3.34 µM (inactive) | GI50 (BT-549): 1.37 µM (inactive) | GI50 (CCRF-CEM): 0.0649 µM (active) | GI50 (EKVX): 0.962 µM (active) | GI50 (HOP-62): 5.66 µM (inactive) | GI50 (IGROV-1): 0.834 µM (active) | GI50 (K562): 0.122 µM (active) | GI50 (LOX IMVI): 0.152 µM (active) | GI50 (MCF7): 1.05 µM (active) | GI50 (MDA-MB-231): 0.662 µM (active) | GI50 (MDA-N): 0.467 µM (active) | GI50 (Malme-3M): 0.274 µM (active) | GI50 (OVCAR-4): 1.93 µM (inactive) | GI50 (OVCAR-8): 0.69 µM (active) | GI50 (PC-3): 1.61 µM (inactive) | GI50 (SK-MEL-5): 1.09 µM (active) | GI50 (SK-OV-3): 6.12 µM (inactive) | GI50 (SNB-75): 3.93 µM (inactive) | GI50 (SW-620): 0.216 µM (active) | GI50 (TK-10): 1.5 µM (inactive)

COC(=O)c1n[nH]c(C)c1/N=N/N(C)CCC#N
GI50 (A498): 76 µM (inactive) | GI50 (BT-549): 10.9 µM (inactive) | GI50 (CCRF-CEM): 7.67 µM (inactive) | GI50 (EKVX): 13.7 µM (inactive) | GI50 (HOP-62): 18.8 µM (inactive) | GI50 (IGROV-1): 2.13 µM (inactive) | GI50 (K562): 15.3 µM (inactive) | GI50 (LOX IMVI): 8.18 µM (inactive) | GI50 (MCF7): 7.14 µM (inactive) | GI50 (MDA-MB-231): 24.8 µM (inactive) | GI50 (MDA-N): 47.5 µM (inactive) | GI50 (Malme-3M): 15.2 µM (inactive) | GI50 (OVCAR-4): 12.9 µM (inactive) | GI50 (OVCAR-8): 14.4 µM (inactive) | GI50 (PC-3): 20 µM (inactive) | GI50 (SK-MEL-5): 26.9 µM (inactive) | GI50 (SK-OV-3): 19.7 µM (inactive) | GI50 (SNB-75): 13.4 µM (inactive) | GI50 (SW-620): 14 µM (inactive) | GI50 (TK-10): 20.9 µM (inactive)

Cc1c(-c2ccccc2)c(C#N)c2nnn(C)c(=O)n12
GI50 (A498): 91.6 µM (inactive) | GI50 (BT-549): > 100 µM (inactive) | GI50 (CCRF-CEM): > 100 µM (inactive) | GI50 (EKVX): > 100 µM (inactive) | GI50 (HOP-62): 44 µM (inactive) | GI50 (IGROV-1): > 100 µM (inactive) | GI50 (K562): > 100 µM (inactive) | GI50 (LOX IMVI): > 100 µM (inactive) | GI50 (MCF7): > 100 µM (inactive) | GI50 (MDA-MB-231): > 100 µM (inactive) | GI50 (MDA-N): > 100 µM (inactive) | GI50 (Malme-3M): > 100 µM (inactive) | GI50 (OVCAR-4): > 100 µM (inactive) | GI50 (OVCAR-8): > 100 µM (inactive) | GI50 (PC-3): 64.3 µM (inactive) | GI50 (SK-MEL-5): > 100 µM (inactive) | GI50 (SK-OV-3): 96.2 µM (inactive) | GI50 (SNB-75): 42.8 µM (inactive) | GI50 (SW-620): > 100 µM (inactive) | GI50 (TK-10): > 100 µM (inactive)

O=C(N/C=C1\C(=O)Oc2ccccc2C1=O)Oc1ccccc1
GI50 (A498): 15.2 µM (inactive) | GI50 (BT-549): 18.7 µM (inactive) | GI50 (CCRF-CEM): 25 µM (inactive) | GI50 (EKVX): 27.7 µM (inactive) | GI50 (HOP-62): 17.6 µM (inactive) | GI50 (IGROV-1): 20.7 µM (inactive) | GI50 (K562): 55.3 µM (inactive) | GI50 (LOX IMVI): 25.1 µM (inactive) | GI50 (MCF7): 35.1 µM (inactive) | GI50 (MDA-MB-231): 16.7 µM (inactive) | GI50 (MDA-N): 18.1 µM (inactive) | GI50 (Malme-3M): 19.1 µM (inactive) | GI50 (OVCAR-4): 22.5 µM (inactive) | GI50 (OVCAR-8): 25.8 µM (inactive) | GI50 (PC-3): 29.5 µM (inactive) | GI50 (SK-MEL-5): 32.7 µM (inactive) | GI50 (SK-OV-3): 6.27 µM (inactive) | GI50 (SNB-75): 14.3 µM (inactive) | GI50 (SW-620): 30.8 µM (inactive) | GI50 (TK-10): 22.9 µM (inactive)

C/C(=N\Nc1ncnc2ccccc12)c1ccccn1
GI50 (A498): 0.183 µM (active) | GI50 (BT-549): 0.587 µM (active) | GI50 (CCRF-CEM): < 0.01 µM (active) | GI50 (EKVX): < 0.0169 µM (active) | GI50 (HOP-62): 0.0355 µM (active) | GI50 (IGROV-1): < 0.0162 µM (active) | GI50 (K562): < 0.0106 µM (active) | GI50 (LOX IMVI): 0.0194 µM (active) | GI50 (MCF7): 0.0138 µM (active) | GI50 (MDA-MB-231): < 0.0196 µM (active) | GI50 (MDA-N): 0.384 µM (active) | GI50 (Malme-3M): < 0.0315 µM (active) | GI50 (OVCAR-4): 10.7 µM (inactive) | GI50 (OVCAR-8): < 0.01 µM (active) | GI50 (PC-3): < 0.0226 µM (active) | GI50 (SK-MEL-5): 0.0237 µM (active) | GI50 (SK-OV-3): 0.0299 µM (active) | GI50 (SNB-75): 1.81 µM (inactive) | GI50 (SW-620): < 0.0267 µM (active) | GI50 (TK-10): 0.157 µM (active)

CCc1nnc(-n2c(C)nc3cc(Cl)ccc3c2=O)s1
GI50 (A498): 39.9 µM (inactive) | GI50 (BT-549): 44.6 µM (inactive) | GI50 (CCRF-CEM): 19.6 µM (inactive) | GI50 (EKVX): 49.2 µM (inactive) | GI50 (HOP-62): 45.4 µM (inactive) | GI50 (IGROV-1): 40.7 µM (inactive) | GI50 (K562): 29 µM (inactive) | GI50 (LOX IMVI): 39.1 µM (inactive) | GI50 (MCF7): 31.9 µM (inactive) | GI50 (MDA-MB-231): 83 µM (inactive) | GI50 (MDA-N): 13.3 µM (inactive) | GI50 (Malme-3M): 16 µM (inactive) | GI50 (OVCAR-4): 28.8 µM (inactive) | GI50 (OVCAR-8): 51.4 µM (inactive) | GI50 (PC-3): 52.8 µM (inactive) | GI50 (SK-MEL-5): 21.3 µM (inactive) | GI50 (SK-OV-3): 38.4 µM (inactive) | GI50 (SNB-75): 34.9 µM (inactive) | GI50 (SW-620): 34.8 µM (inactive) | GI50 (TK-10): 40.9 µM (inactive)

CC(NC(=O)NC(C)(C)C)NC(=O)C(N)CC(=O)O (stereo not given)
GI50 (A498): > 100 µM (inactive) | GI50 (BT-549): > 100 µM (inactive) | GI50 (CCRF-CEM): > 100 µM (inactive) | GI50 (EKVX): > 100 µM (inactive) | GI50 (HOP-62): > 100 µM (inactive) | GI50 (IGROV-1): > 100 µM (inactive) | GI50 (K562): > 100 µM (inactive) | GI50 (LOX IMVI): > 100 µM (inactive) | GI50 (MCF7): > 100 µM (inactive) | GI50 (MDA-MB-231): > 100 µM (inactive) | GI50 (MDA-N): > 100 µM (inactive) | GI50 (Malme-3M): > 100 µM (inactive) | GI50 (OVCAR-4): > 100 µM (inactive) | GI50 (OVCAR-8): > 100 µM (inactive) | GI50 (PC-3): > 100 µM (inactive) | GI50 (SK-MEL-5): > 100 µM (inactive) | GI50 (SK-OV-3): 15.8 µM (inactive) | GI50 (SNB-75): > 100 µM (inactive) | GI50 (SW-620): > 100 µM (inactive) | GI50 (TK-10): > 100 µM (inactive)
